In patent US10155798B2, “Anti-obesity compounds derived from neuromedin U” (The Regents of the University of California, priority 2013, dated 2018):
*1 amine or outer side, *2 acyl side, *3 side chain or, on linkers, in order; H or OH if unused. Where a SMILES comes first, the peptide text is derived from it. Bridges are numbered along the chain shown (N, C = ends). [ ]: non-standard residue; d: D form. The star is where a group is joined. mXylylene(5-CH2SC16H33) = CCCCCCCCCCCCCCCCSCc1cc(C[*:1])cc(C[*:2])c1; X1 = CCCCCCCCCCCCCCCCN(CCCCCCCCCCCCCCCC)CCCCCC(=O)*; Tic = O=C(O)[C@@H]1Cc2ccccc2CN1; Aib = CC(C)(N)C(=O)O; Ahx = NCCCCCC(=O)O

What was measured:
[1] = target: T1, NMUR1 (neuromedin U 1 receptor) (Homo sapiens, UniProt Q9HB89); assay: Calcium mobilization assay, HEK-NMU1 cells; type: cell-based; conditions: HEK293 cells expressing NMU1 receptor, NA = not active
T1 construct: expressed in transfected cells; host or cells: HEK293 (HEK-NMU1)
T1 sequence (Q9HB89 1-426): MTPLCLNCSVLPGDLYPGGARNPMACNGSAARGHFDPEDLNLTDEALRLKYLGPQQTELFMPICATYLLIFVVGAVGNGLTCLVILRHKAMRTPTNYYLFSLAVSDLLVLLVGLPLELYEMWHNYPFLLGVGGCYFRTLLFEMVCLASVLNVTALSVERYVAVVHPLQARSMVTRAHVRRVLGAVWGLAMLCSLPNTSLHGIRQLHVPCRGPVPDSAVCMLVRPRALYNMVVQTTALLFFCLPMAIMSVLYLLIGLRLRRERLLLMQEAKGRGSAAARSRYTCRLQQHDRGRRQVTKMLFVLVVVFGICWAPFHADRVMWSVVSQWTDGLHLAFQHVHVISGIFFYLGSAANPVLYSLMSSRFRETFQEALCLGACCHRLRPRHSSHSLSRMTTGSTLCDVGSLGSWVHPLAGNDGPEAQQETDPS
Description: (§1) To test whether neuromedin U can be modified/derivatized to yield truncated bioactive compound(s) that may be useful as therapeutics, we synthesized a small library (25 peptides) of hNMU analogs utilizing various stabilization protocols, including: cyclization, lipidation, introduction of α,α-disubstituted and N-methylated amino acids, retro-inverso-approach, and combination of such (see Table 1). Subsequently all analogues were tested against human neuromedin U receptors (NMUR1 and NMUR2) in calcium mobilization assay (collaboration with Dr Gary Willars, University of Leicester, UK).
HEK293 cells expressing either the neuromedin U 1 receptor or neuromedin U 2 receptor (HEK-NMU1 and HEK-NMU2 respectively) were grown to approximately 90% confluence in ELISA strip plates (96-well format) pre-coated with poly-D-lysine (0.1% w/v) and loaded for 45 min at 37° C. with 2 iM fluo-4-AM in Krebs'-HEPES buffer with bovine serum albumin (KHB-BSA; composition: 10 mM HEPES; 4.2 mM NaHCO3; 11.7 mM D-glucose; 1.18 mM MgSO4.7H2O; 1.18 mM KH2PO4; 4.69 mM KCl; 118 mM NaCl; 1.3 mM CaCl2.2H2O; 0.1% (w/v) BSA; pH 7.4). Monolayers were then washed and equilibrated for 5 min at 37° C. in 100 il KHB-BSA for subsequent recording of fluorescence as an index of intracellular [Ca^2+] ([Ca^2+]i) using a microplate reader (NOVOstar; BMG LABTECH, Aylesbury, U.K.). […]

[2] = target: T2, NMUR2 (neuromedin U 2 receptor) (Homo sapiens, UniProt Q9GZQ4); assay: Calcium mobilization assay, HEK-NMU2 cells; type: cell-based; conditions: HEK293 cells expressing NMU2 receptor, NA = not active
T2 construct: expressed in transfected cells; host or cells: HEK293 (HEK-NMU2)
Description: as §1
HEK293 cells expressing either the neuromedin U 1 receptor or neuromedin U 2 receptor (HEK-NMU1 and HEK-NMU2 respectively) were grown to approximately 90% confluence in ELISA strip plates (96-well format) pre-coated with poly-D-lysine (0.1% w/v) and loaded for 45 min at 37° C. with 2 iM fluo-4-AM in Krebs'-HEPES buffer with bovine serum albumin (KHB-BSA; composition: 10 mM HEPES; 4.2 mM NaHCO3; 11.7 mM D-glucose; 1.18 mM MgSO4.7H2O; 1.18 mM KH2PO4; 4.69 mM KCl; 118 mM NaCl; 1.3 mM CaCl2.2H2O; 0.1% (w/v) BSA; pH 7.4). Monolayers were then washed and equilibrated for 5 min at 37° C. in 100 il KHB-BSA for subsequent recording of fluorescence as an index of intracellular [Ca^2+] ([Ca^2+]i) using a microplate reader (NOVOstar; BMG LABTECH, Aylesbury, U.K.). Briefly, 20 μl of KHB-BSA, with or without ligand, was added into the well (200 μl/s) and fluorescence determined at 0.5 s intervals by excitation at 485 nm and collection of emitted light at 520 nm. Changes in fluorescence above basal levels (before ligand addition) were determined. […] Fmax was obtained by removal of buffer and addition of KHB-BSA buffer containing 4 mM [Ca^2+] and ionomycin (2 μM) to representative wells and the fluorescence measured for 10 min. Fmin was then derived by replacing buffer with Ca^2+-free KHB-BSA buffer containing 2 mM EGTA and fluorescence measured for 10 min. For the determination of concentration-response relationships, the maximal change in [Ca^2+]i was calculated following ligand addition. Concentration-response curves were then fitted using a four-parameter logistic equation to determine EC50 values (GraphPad Software Inc., Calif.).

male DIO C57BL/6 mice [3] = assay: Chronic in vivo experiments in DIO mice (body weight, food intake, gastric emptying); design: species or system mouse; conditions: for gastric emptying in experimental animals: s.c. 1603 nMole/kg, chronic regimen
Description: FIG. 4. Anorectic effects of NM4A in chronic in vivo experiments. (A) Ad libitum fed male DIO C57BL/6 mice were treated with either vehicle or NM4A (2.2 mg/kg; 1603 nMole/kg) every 2, 4 or 7 days for 21 days. (B) Ad libitum fed male DIO C57BL/6 mice were treated with either vehicle or NM4A (2.2 mg/kg; 1603 nMole/kg) once a week for 21 days. After initial treatment animals were kept either on high-fat diet (FD) or normal diet (ND).
FIG. 6. (A) Comparison of anorectic effects of NM4A & NM4-C16 analogs in chronic in vivo experiments. Ad libitum fed male DIO C57BL/6 mice were treated with either vehicle or NM4A (2.2 mg/kg; 1603 nMole/kg) or NM4-C16 (2.6 mg/kg; 1603 nMole/kg) every 7 days for 21 days. (B) Food intake of animals treated with NM4-C16 (2.6 mg/kg; 1603 nMole/kg) every 7 days for 21 days.
NM4A was characterized further in in vivo chronic experiments. Ad libitum fed male DIO C57BL/6 mice, which were kept on the high fat diet (Cat #D12492, Research Diets, Inc., New Brunswick, N.J.), were treated subcutaneously (s.c.) with either vehicle or NM4A (2.2 mg/kg; 1603 nMole/kg) either every 2, 4 or 7 days for 21 days. […] To determine whether NM4A can be used as an auxiliary in dieting of the obese subjects we tested its efficiency in once weekly regimen at the 2.2 mg/kg dose. In this case, ad libitum fed male DIO C57BL/6 mice were kept either on the high fat diet (FD) or regular diet (ND) during NM4A's administration.
(§2) Despite limited success with our “double-lipidation” approach, we decided to test NM4-C16 analog in vivo using once weekly subcutaneous injection regimen at the 2.6 mg/kg dose, which is equimolar to previously used NM4A dose (e.g. 1603 nMole/kg).
All animal experiments were approved by the UCLA Animal Care and Use Committee (ARC #1999-173-23) and conformed to local and national guidelines. Ad libitum fed male DIO C57BL/6 mice (n=8 per group) kept on D12492, a high-fat diet composed of 60% Kcal from fat (Research Diets, Inc., New Brunswick, N.J.) were weighed and individually dosed (s.c., 30 min prior to the onset of the dark phase of the light cycle) with either vehicle or NM4A (2.2 mg/kg; 1603 nMole/kg) every 2 days or NM4A (2.2 mg/kg; 1603 nMole/kg) every 4 days or NM4A (2.2 mg/kg; 1603 nMole/kg) every 7 days or NM4-C16 (2.6 mg/kg; 1603 nMole/kg) every 7 days for 21 days and their food intake and body weight were measured daily. […] Briefly, calculated amount of the desired peptide (1 eq) and 10 equivalents of PUREBRIGHT® SL-220 (1 mg: 10 mg) were solubilized in minimal volume of 90% absolute ethyl alcohol in water. Subsequently solution was aliquoted into Eppendorf tubes and freeze-dried. Obtained solid residue was re-solubilized in the proper amount of PBS directly before use by vortexing.

male DIO C57BL/6 mice [4] = assay: Hematological parameters of animals treated with NM4-C16; type: in vivo, mouse; conditions: 2.6 mg/kg every 7 days for 21 days
Description: as §2

male DIO C57BL/6 mice [5] = assay: Abdominal fat evaluation of chronically treated animals; type: in vivo, mouse; conditions: chronic treatment 21 days, 1603 nMole/kg; vehicle ~8%
Description: (§3) FIG. 7. (A) Abdominal fat evaluation of chronically treated animals. Ad libitum fed male DIO C57BL/6 mice were treated with either vehicle or NM4A (2.2 mg/kg; 1603 nMole/kg) every 2 days or NM4A (2.2 mg/kg; 1603 nMole/kg) every 4 days or ^(*)NM4-C16 (2.6 mg/kg; 1603 nMole/kg) every 7 days for 21 days. Subsequently, their abdominal fat was harvested and weighted. Results are expressed as % of abdominal fat per total body weight. (B) Distribution of NM4A in NM4A chronically treated animals (2.2 mg/kg; every 2 days for 28 days).
For three groups of animals treated every 2, 4 and 7 days we also performed abdominal fat evaluation (FIG. 7A).

Water solubility = type: physicochemical
[6] = system: diet induced obese (DIO) mouse model; assay: Single dose in vivo anorectic experiments in DIO mouse model; conditions: DIO mice
From the text: FIG. 3. Single dose in vivo experiments performed in DIO mouse model. (A) Comparison of anorectic effects of NM4 and NM7. (B) NM4 dose response experiments. (C) Comparison of NM4 and NM4A anorectic activity.
Initially we focused on single dose experiments comparing NM4 and NM7 at 5344 nMole/kg dose (FIG. 3).

[7] = Body distribution of NM4A in chronically treated animals; type: in vivo, mouse; conditions: 2.2 mg/kg every 2 days for 28 days
Description: as §3
To test body distribution of NM-analogs we performed also limited ADME studies in animals that underwent chronic treatment with NM4A every 2 days for 28 days (2.2 mg/kg; 1603 nMole/kg dose).
Ad libitum fed male DIO C57BL/6 mice that underwent chronic treatment with NM4A (2.2 mg/kg; 1603 nMole/kg; dosing every 2 days for 28 days) were sacrificed and their organs/tissues harvested and weighted. […] Obtained homogenate(s) were transferred to 1.5 mL Eppendorf tubes and centrifuged for 10 min at 13000 rpm.

T2 sequence (Q9GZQ4 whole entry): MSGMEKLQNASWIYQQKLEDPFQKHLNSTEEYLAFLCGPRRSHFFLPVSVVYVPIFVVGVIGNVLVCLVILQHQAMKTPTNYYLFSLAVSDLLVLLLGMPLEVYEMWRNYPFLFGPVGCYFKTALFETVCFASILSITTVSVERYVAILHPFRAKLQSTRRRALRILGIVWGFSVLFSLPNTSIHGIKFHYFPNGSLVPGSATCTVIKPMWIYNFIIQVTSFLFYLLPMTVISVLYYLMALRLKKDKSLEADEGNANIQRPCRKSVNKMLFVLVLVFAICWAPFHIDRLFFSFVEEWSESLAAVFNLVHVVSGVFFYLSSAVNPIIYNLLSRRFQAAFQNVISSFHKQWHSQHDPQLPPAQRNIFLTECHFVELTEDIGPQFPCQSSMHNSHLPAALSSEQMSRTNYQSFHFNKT

| Structure (SMILES) | EC50 [1] | EC50 [2] | body weight, once-weekly administration (male DIO C57BL/6 mice [3]; s.c. 2.6 mg/kg (1603 nMole/kg) every 7 days for 21 days) | gastric emptying in experimental animals (male DIO C57BL/6 mice [3]) | hematological parameters/blood cell count (male DIO C57BL/6 mice [4]) | abdominal fat content (% of abdominal fat per total body weight) (male DIO C57BL/6 mice [5]) | water solubility (Water solubility) | duration of anorectic effects after single dose administration ([6]; 1603 nMole/kg, 2.2 mg/kg) | in vivo activity relative to NM4 ([6]; single dose, FIG. 3C) | body weight, once weekly regimen as auxiliary in dieting (male DIO C57BL/6 mice [3]; 2.2 mg/kg once a week for 21 days, high fat diet (FD) or regular diet (ND)) | anorectic effects, chronic treatment (male DIO C57BL/6 mice [3]; s.c. 2.2 mg/kg every 2 and every 4 days for 21 days, high fat diet) | anorectic effects, chronic treatment, less frequent dosage (male DIO C57BL/6 mice [3]; s.c. 2.2 mg/kg every 7 days for 21 days, high fat diet) | entry into the brain [7] | tissue with highest content [7] |
| --- | --- | --- | --- | --- | --- | --- | --- | --- | --- | --- | --- | --- | --- | --- |
| CC(C)C[C@H](NC(=O)[C@H](Cc1ccccc1)NC(=O)CCCCCNC(=O)[C@@H](N)CS)C(=O)N[C@@H](Cc1ccccc1)C(=O)N[C@@H](CCCNC(=N)N)C(=O)N1Cc2ccccc2C[C@H]1C(=O)N[C@@H](CCCNC(=N)N)C(=O)N[C@@H](CC(N)=O)C(=O)NCCCCCC(=O)N[C@@H](CS)C(N)=O [NM10, C-Ahx-FL-Phe-Arg-Tic-R-Asn-Ahx-C] (H-C[Ahx]FLFR[Tic]RN[Ahx]C-NH2) | 3980 nM | 2690 nM | – | – | – | – | – | – | – | – | – | – | – | – |
| CCCCCCCCCCCCCCCCN(CCCCCCCCCCCCCCCC)CCCCCC(=O)NC(C)(C)C(=O)N[C@@H](Cc1ccccc1)C(=O)N[C@@H](CC(C)C)C(=O)N[C@@H](Cc1ccccc1)C(=O)N[C@@H](CCCNC(=N)N)C(=O)N1CCC[C@H]1C(=O)N[C@@H](CCCNC(=N)N)C(=O)N[C@@H](CC(N)=O)C(N)=O [Peptide M4-C16, (c16)2-Ahx-Aib-FL-Phe-Arg-Pro-R-Asn] (X1-[Aib]FLFRPRN-NH2) | – | 741 ± 32 nM | sustained weight loss | very limited gastric emptying | appears to be normal | ~5% | limited water solubility | – | – | – | – | – | – | – |
| CCCCCCCCCCCCCCCCNC(=O)CNCC(=O)NC(C)(C)C(=O)N[C@@H](Cc1ccccc1)C(=O)N[C@@H](CC(C)C)C(=O)N[C@@H](Cc1ccccc1)C(=O)N[C@@H](CCCNC(=N)N)C(=O)N1CCC[C@H]1C(=O)N[C@@H](CCCNC(=N)N)C(=O)N[C@@H](CC(N)=O)C(N)=O [Peptide M4A, Ida^NHPal-Aib-FL-Phe-Arg-Pro-R-Asn] | – | 6.46 ± 0.89 nM | – | causes initially gastric emptying | – | ~5% | limited water solubility | ≤ 20 days | at least 3.5 times | additional body weight decrease | potent anorectic effects | limited activity | does not appear to enter the brain effectively | highest content of NM4A is detected in plasma |
| CCCCCCCCCCCCCCCCSCc1cc2cc(c1)CSC[C@H](N)C(=O)NCCCCCC(=O)N[C@@H](Cc1ccccc1)C(=O)N[C@@H](CC(C)C)C(=O)N[C@@H](Cc1ccccc1)C(=O)N[C@@H](CCCNC(=N)N)C(=O)N1Cc3ccccc3C[C@H]1C(=O)N[C@@H](CCCNC(=N)N)C(=O)N[C@@H](CC(N)=O)C(=O)NCCCCCC(=O)N[C@H](C(N)=O)CSC2 [NM16, PalS-X(C-Ahx-FL-Phe-Arg-Tic-R-Asn-Ahx-C)] (H-C[Ahx]FLFR[Tic]RN[Ahx]C-NH2; linker 1-11 via mXylylene(5-CH2SC16H33)) | 3980 nM | – | – | – | – | – | – | – | – | – | – | – | – | – |
